# “Also recorded” adds a separate entry of the source.
# Experiments:
# adult female B. pahangi = test: Transmission electron microscopy of treated adult female B. pahangi; type: cell-based, Brugia pahangi; conditions: flubendazole 10 μM overnight, positive control
# Description: Adult female B. pahangi worms were incubated with either 1 μM, 0.3 μM, or 0.1 μM auranofin, 10 μM flubendazole (as a positive control), or 1% DMSO overnight, then cut into 3 segments separating the anterior, middle and posterior sections. The middle sections were further cut into 1 mm sized pieces in fixative (2.5% glutaraldehyde and 2% paraformaldehyde in 0.1 M sodium cacodylate buffer, pH 7.3–7.4) and stored at 4°C. Middle sections were subsequently treated with 1% tannic acid for 1 hour, followed by three buffer washes before post fixation staining with 2% osmium tetroxide for 1 hour. The samples were washed three times in buffer before dehydration in an ethanol series. Worm sections were then infiltrated with propylene oxide, embedded in epon 812 resin and polymerized in a vacuum oven at 60°C overnight. Ultrathin sections were cut using an RMC MTX ultramicrotome with a Diatome diamond knife followed by post staining of the grids with saturated ethanolic uranyl acetate and Reynolds lead citrate. Samples were imaged on a FEI Tecnai 12 spirit TEM operated at 80 kV. A similar procedure was performed on adult female O. ochengi worm masses that were cultured for 7 days with 10 μM auranofin before fixation of cut pieces of the adult female mass. Untreated adult female masses cultured for 7 days and fixed by the same procedure served as the control.
# [1] = system: Recombinant B. malayi TrxR (rBmTrxR); test: Recombinant B. malayi TrxR (rBmTrxR) DTNB inhibition assay; type: biochemical, Brugia malayi
# Description: Recombinant 6-His-tagged B. malayi TrxR (rBmTrxR) was produced in E. coli BL21(DE3) in the presence of pSUABC [29] in LB medium supplemented with 20 μg/mL riboflavin under conditions for optimal selenoprotein expression. An overnight starter culture in LB with 50 μg/mL ampicillin and 34 μg/mL chloramphenicol was diluted (1:100) into in LB medium with the same antibiotics. When the culture reached an OD600 = 0.8, the medium was supplemented with 5 μM sodium selenite and 100 μg/mL L-cysteine. When the culture OD600 = 2, riboflavin (20 μg/mL) was added and protein expression was induced by the addition of isopropyl β-D-1-thiogalactopyranoside (50 μM). At this point the cultures were shifted to 24°C and incubated for 24 hr. Cells were collected by centrifugation, lysed by alternative freeze-thaw cycles, and resuspended in lysis buffer (50 mM potassium phosphate, pH 7.8, 500 mM NaCl, 30 mM imidazole, 1 mg/mL lysozyme, 1 mM phenylmethanesulfonylfluoride) supplemented with 100 μM flavin adenine dinucleotide. The sample was sonicated and cellular debris pelleted at 25,000 x g at 4°C for 25 min. The supernatant was collected and filtered through a 0.45 μm filter before purification by immobilized metal ion affinity chromatography using a His-Trap FF column (GE Healthcare). The column was washed with 10 column volumes binding buffer (50 mM potassium phosphate, pH 7.8, 500 mM NaCl, 30 mM imidazole) and then with 5 column volumes of buffer A (binding buffer with 100 mM imidazole). TrxR protein was eluted in 3 × 1 mL buffer B (binding buffer with 500 mM imidazole).Protein was concentrated (Amicon Ultra-4 10K) and purity was verified by SDS-PAGE and quantified by absorbance at 280 nm (ε = 69.76 mM^-1 cm^-1).
# rBmTrxR activity was assayed in 0.1 M potassium phosphate (pH 7.2) with 10 mM EDTA and 25 nM rBmTrxR. rBmTxrR was pre-incubated for 20 min with NADPH (100 μM) and auranofin (ICN Pharmaceuticals, now Valeant Pharmaceuticals, Bridgewater, NJ) or aurothioglucose (USP Reference Standards, Rockville, MD) in DMSO in 100 μL, followed by addition of an equal volume of buffer with NADPH (200 μM) and DTNB (6 mM) with reaction progress monitored at λ = 412 nm for TNB production. The concentration of DMSO in all reactions was 3.5%.
Compound,ultrastructure (TEM) of adult female B. pahangi (adult female B. pahangi),mode of inhibition of rBmTrxR [1],"IC50 ([1]; 25 nM rBmTrxR, 20 min pre-incubation with NADPH, DTNB substrate) [nM]"
COC(=O)Nc1nc2cc(C(=O)c3ccc(F)cc3)ccc2[nH]1 [flubendazole],normal Wolbachia with very few mitochondria containing dark bodies; also recorded: did not cause vacuolization but only minor changes to the mitochondria,,
aurothioglucose,,irreversibly inhibit rBmTrxR at a one-to-one molar ratio,9

# Reference: PMC4336141, “Repurposing Auranofin as a Lead Candidate for Treatment of Lymphatic Filariasis and Onchocerciasis” (PLoS Neglected Tropical Diseases, 2015)
